Experimental data: US20240238445A1, “INHIBITORS AND USES THEREOF” (NEURACLE SCIENCE CO., LTD., priority 2021, published 2024)
Square brackets hold non-standard residues; d marks the D form. Ends that are not written are not given here.

Assays:
[1] = biological target: interaction between Fc conjugated LRRC4B (amino acids 453-576) protein fragment and FAM19A5 protein (Homo sapiens, UniProt Q7Z5A7); test: Competitive inhibition assay of chemical compounds, plate coated with Fc conjugated LRRC4B fragment (453-576); format: binding; conditions: for effect of increasing concentration on LRRC4B-FAM19A5 interaction (in words): increasing concentrations
interaction between Fc conjugated LRRC4B (amino acids 453-576) protein fragment and FAM19A5 protein, sequence (Q7Z5A7 44-132): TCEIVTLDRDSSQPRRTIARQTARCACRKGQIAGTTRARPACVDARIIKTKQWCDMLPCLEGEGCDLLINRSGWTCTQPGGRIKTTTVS
Method: In particular, the following compounds were produced: (1) KB734, (2) KB761, (3) KB763, (4) KB1157, (5) KB1161, (6) KB1542, (7) KB1543, (8) KB2256, (9) KB2258, (10) KB2310, (11) KB2357, (12) KB2718, (13) KB2719, (14) KB3111, (15) KB3112, (16) KB3220, (17) KB3201, (18) KB3250, and (19) KB3251. Then, the ability of the above chemical compounds to inhibit the binding of LRRC4 protein family members to FAM19A5 protein was assessed using a competitive inhibition assay. Briefly, ELISA plates were coated with 100 nM of a Fc conjugated LRRC4B fragment (amino acids 453-576 of SEQ ID NO: 2; SEQ ID NO: 7). Then, recombinant FAM19A5 protein (1 ng/mL) was added to the plates in combination with one of the above chemical compounds (100 μM). Recombinant FAM19A5 protein alone (“CTRL”) or in combination with DMSO was used as control. The plates were incubated at 37° C. and then, the amount of FAM19A5 protein bound to the coated LRRC4B protein fragment was assessed using HRP-conjugated anti-FAM19A5 (1-65) antibody.
Next, to assess whether increasing the concentration of the chemical compounds could improve the inhibitory effect, increasing concentrations of KB734, KB2310, and KB2357 compounds were subjected to the same competitive inhibition assay described above.
To further assess the inhibitory effect of the KB2357 chemical compound on FAM19A5 protein and members of the LRRC4 protein family, the following derivatives of the KB2357 compound were synthesized as described earlier: (1) KB2304, (2) KB2305, (3) KB2308, (4) KB2309, (5) KB2314, (6) KB2315, (7) KB2324, (8) KB2325, (9) KB2328, (10) KB2329, (11) KB2336, (12) KB2337, (13) KB2350, (14) KB2356, (15) KB2358, (16) KB2359, (17) KB2369, (18) KB2372, and (19) KB2399. The derivative compounds were also tested in the competitive inhibition assay as described above.

[2] = biological target: interaction between His-TEV LRRC4B and rFAM19A5 (Homo sapiens, UniProt Q7Z5A7); test: Competitive inhibition assay (IC50), plate coated with His-TEV LRRC4B; format: binding; conditions: for IC50: Table 15, His-TEV LRRC4B 100 nM coat, peptide 0.3-10000 nM, read-out: IC50 (nM), Inhibition on Complex Formulation between LRRC4B protein and recombinant FAM19A5 protein (1 ng/ml)
Method: To further assess the inhibitory effect of the FB-21 mutants, the ability of additional FB-21 mutants described in Example 9 were tested for their ability to inhibit the interaction between FAM19A5 protein and LRRC4B protein. Briefly, plates were coated with 100 nM of His-TEV LRRC4B and then 1 ng/mL of rFAM19A5 was incubated at 37° C. in the presence of increasing concentrations of the FB-21 peptide fragments (0.3, 1, 3, 10, 30, 100, 300, 1000, 3000 and 10000 nM). The LRRC4B-bound FAM19A5 levels were measured using HRP-conjugated 1-65 SS01 antibody. As shown in FIG. 22B (see Table 15 for IC50), most (if not all) of the FB-21 mutants had improved ability in inhibiting the interaction between LRRC4B and recombinant FAM19A5 protein.
Next, to assess whether other properties of the polypeptides described herein can be improved (e.g., solubility, prevention of degradation from protease and peptidase, and in vivo administration), the following additional FB-21 peptide mutants were constructed and tested for their ability to inhibit the interaction between FAM19A5 protein and LRRC4B: (1) d-form FB-21 peptide (“dFB-21”), (2) d-form FB-21 peptide with juxta-membrane (JM) sequence (“dFB-JM-31”), (3) d-form FB-21 peptide with BBB penetrating sequence at each end of the sequence (“dFB-BBB-39”), and (4) d-form FB-21 mutant peptide with DY replacement and additional JM sequence (“dFB-DY-JM31”). The sequence for d-form FB-21 peptide is set forth in SEQ ID NO: 153 (nYTYFTTVTVETLETQPGEEa; wherein the lowercase amino acids represent D-form of the amino acid, and the uppercase amino acids represent L-form of the amino acid). The sequence for dFB-BBB-39 is set forth in SEQ ID NO: 154 (n[…]l; wherein the lowercase amino acids represent D-form of the amino acid, and the uppercase amino acids represent L-form of the amino acid). The sequence for dFB-JM-31 is set forth in SEQ ID NO: 155 (n[…]a; wherein the lowercase amino acids represent D-form of the amino acid, and the uppercase amino acids represent L-form of the amino acid). The sequence for dFB-DY-JM31 is set forth in SEQ ID NO: 156 (n[…]a; wherein the lowercase amino acids represent D-form of the amino acid, and the uppercase amino acids represent L-form of the amino acid). The overall experimental methods were the same as those described immediately above.

[3] = biological target: hFc-fused hLRRC4B and FAM19A5 complex formation (Homo sapiens, UniProt Q7Z5A7); test: Competitive inhibition assay (IC50), plate coated with LRRC4B(453-576, TT/TT)-hFc; format: binding; conditions: for IC50: Table 14, LRRC4B(453-576, TT/TT)-hFc 100 nM coat, peptide 0.03-1000 nM, read-out: IC50 (nM), Inhibition on Complex Formulation between human LRRC4B protein and recombinant FAM19A5 protein (1 ng/mL)
Method: The in silico analysis provided in Example 9 highlighted that certain T12 and L13 double mutants might be important in improving the binding affinity of the polypeptides of the present disclosure to the FAM19A5 protein. Therefore, the ability of both the wild-type FB-21 peptide (which is the same as the FB-20 peptide described herein except that the FB-21 peptide additionally contains an alanine at the C-terminus) and several FB-21 mutants were tested for their inhibitor effect on hFc-fused hLRRC4B and FAM19A5 complex formation. Briefly, plate was coated with 100 nM of LRRC4B(453-576, TT/TT)-hFc and then 1 ng/ml of rFAM19A5 was incubated at 37° C. in the presence of increasing concentrations of the different FB-21 peptide fragments (0.03, 0.1, 0.3, 1, 3, 10, 30, 100, 300 and 1000 nM). The LRRC4B-bound FAM19A5 levels were measured using HRP-conjugated 1-65 antibody.

[4] = biological target: T1, FAM19A5 protein (Homo sapiens, UniProt Q7Z5A7); test: competitive inhibition ELISA, 20 nM peptide, rFAM19A5 5 ng/mL; competitor: coated LRRC4B(36-576)-hFc
[5] = biological target: T1, FAM19A5 protein; test: competitive inhibition ELISA, 20 nM peptide, rFAM19A5 1 ng/mL; competitor: coated LRRC4B(453-576)-hFc
[6] = biological target: T1, FAM19A5 protein; test: competitive inhibition ELISA; competitor: coated LRRC4B(36-576)-hFc
[7] = biological target: T1, FAM19A5 protein; test: competitive inhibition ELISA; competitor: coated LRRC4B(453-576)-hFc
[8] = biological target: T1, FAM19A5 protein; test: competitive inhibition ELISA, 20 nM peptide, rFAM19A5 5 ng/mL; competitor: coated LRRC4B(36-576)-hFc; remark: listed apart in the source
[9] = biological target: T1, FAM19A5 protein; test: competitive inhibition ELISA, 20 nM peptide, rFAM19A5 1 ng/mL; competitor: coated LRRC4B(453-576)-hFc; remark: listed apart in the source

`CCCCCC(O)/C=C\c1ccc(O)c(OC)c1` (stereo not shown) [KB2356, (Z)-4-(3-Hydroxyoct-1-en-1-yl)-2-methoxyphenol] was tested, and the “effect of increasing concentration on LRRC4B-FAM19A5 interaction (in words)” value (from here on “effect of increasing concentration”) [1] was “able to reduce the interaction in a dose-dependent manner”.

With `CCCCC[C@@H](O)C#Cc1ccc(O)c(OC)c1` [KB2357, (R)-4-(3-Hydroxyoct-1-yn-1-yl)-2-methoxyphenol] the “reduction of interaction between FAM19A5 and the coated LRRC4B protein fragment compared to the controls” value ([1]; 100 μM compound, FAM19A5 1 ng/mL) was “about 10%” and the “effect of increasing concentration” value [1] was “greater reduction in the interaction”.

In the case of `CCCCC[C@H](O)C#Cc1ccc(O)c(OC)c1` [KB2358, (S)-4-(3-Hydroxyoct-1-yn-1-yl)-2-methoxyphenol], the “effect of increasing concentration” value [1] is reported as “able to reduce the interaction in a dose-dependent manner”.

GYTYFTTVTVEDYETQPGEE [FB-21 (D12Y13)] was tested, and the “fold more effective in dissociating LRRC4B-FAM19A5 complex formation compared to FB-21” value ([2]; from IC50 of Table 15) was 2.4 fold and the “fold more effective in dissociating LRRC4B-FAM19A5 complex formation compared to FB-21 (W12Y13)” value ([2]; from IC50 of Table 15) was 7 fold.

“GYTYFTTVTVETLETQPGEEA [FB-21 (wild-type)]” was tested, and the IC50 [3] was 11.9 nM and the IC50 [2] was 138 nM.

In the case of GYTYFTTVTVEWYETQPGEEA [FB-21 (W12Y13)], the IC50 [3] is reported as 4.1 nM, the “increase in ability to dissociate the LRRC4B-FAM19A5 complex compared with wild-type FB-21” value ([3]; from IC50 of Table 14) is reported as 2.9 folds and the IC50 [2] is reported as 46.7 nM.

With “nYTYFTTVTVEDYETQPGEEALDEVMKTTKa ([dN]YTYFTTVTVEDYETQPGEEALDEVMKTTK[dA]; also: terminal modifications n and a on first and last residues) [dFB-DY-JM31]” the “fold more effective in inhibiting complex formation compared to the wild-type FB-21” value ([2]; FIG. 22C, D-form amino acids at both termini) was 4 fold.

B1: FB-20 (peptide)
peptide: GYTYFTTVTVETLETQPGEE
B1 was tested, and the Inhibition rate (%) [4] was 84.3%, the Inhibition rate (%) [5] was 62% and the Inhibition rate (%) [6] was 77%. It also gave an Inhibition rate (%) [7] of 63.2%, an Inhibition rate (%) [8] of 77% and an Inhibition rate (%) [9] of 63.2%.

B2: FBC4-23 (peptide)
peptide: NYSFFTTVTVETTEISPEDTTRK
Work on B2 yielded an Inhibition rate (%) [8] of 64.1% and an Inhibition rate (%) [9] of 40.4%.

B3: FBC4C-23 (peptide)
peptide: NFSYFSTVTVETMEPSQDERTTR
B3 was tested, and the Inhibition rate (%) [8] was 65.7% and the Inhibition rate (%) [9] was 40.4%.
